Measured values taken from patent US4613586A, “Gastrin releasing peptide-like peptides” (Board of Trustees of the Leland Stanford Junior University, priority 1984, dated 1986).
No end group written: not given here.

Key:
Type in all cases: binding, rabbit
[1] = test system: GRP(1-16) antisera Code R2-6B; assay: GRP(1-16) carboxyterminal radioimmunoassay (crossreactivity, displacement of 125I-GRP(1-16) trace); details: summary of Table 1
Excerpt: (§1) Three GRP antisera were generated in rabbits against synthetic porcine GRP and GRP(1-16) (Peninsula Laboratories, San Carlos, CA) linked by a water soluble carbodiimide to bovine throglobulin (as described by Weber, E., Evans, C. J., Chang, J-K. and Barchas, J. D., J. Neurochem 38, 436-447 (1982). RIA conditions have been described in Weber, E., Evans, C. J., and Barchas, J. D., Nature 299, 77-79 (1982). Three GRP RIA's were utilized, the specificity of these RIA's is indicated in Table 1.
(§2) An antisera dilution of 1:20,000 for the GRP(1-27) R3-2 antisera and a dilution of 1:15,000 for the GRP(1-16) R2-6A were used for RIA. For these RIA's GRP(1-27) was used as ^125 I-trace and standard. An antisera dilution of 1:20,000 for GRP(1-16) R2-6B and GRP(1-16) trace and standard were used in the GRP(1-16) carboxyterminal assay. Crossreactivity was based on the amount of unlabeled peptide needed to obtain a 50 percent displacement of ^125 I-trace from the antisera. The highest concentration of unlabeled peptide tested was 1 μM.

[2] = test system: GRP(1-16) antisera Code R2-6A; assay: GRP aminoterminal radioimmunoassay (crossreactivity, displacement of 125I-GRP(1-27) trace); details: summary of Table 1
Excerpt: as §1, §2

[3] = test system: GRP(1-27) antisera Code R3-2; assay: GRP carboxyterminal radioimmunoassay (crossreactivity, displacement of 125I-GRP(1-27) trace); details: for Percent Crossreactivity in RIA GRP(1-27) Code R3-2: antisera dilution 1:20,000, GRP(1-27) trace and standard, based on amount of unlabeled peptide for 50 percent displacement, highest concentration tested 1 μM; for Crossreactivity with GRP carboxyterminal antiserum (in words): summary of Table 1
Excerpt: as §1, §2

| Molecule | Crossreactivity with GRP(1-16) carboxyterminal antisera (in words) [1] | Crossreactivity in GRP aminoterminal RIA (in words) [2] | Percent Crossreactivity in RIA GRP(1-27) Code R3-2 [3] | Crossreactivity with GRP carboxyterminal antiserum (in words) [3] |
| --- | --- | --- | --- | --- |
| APVSVGGGTVLAKMYPRGNHWAVGHLM-NH2 [GRP] | little crossreactivity | crossreacted | 100% | crossreacted |
| CSCC[C@H](NC(=O)[C@H](CC(C)C)NC(=O)[C@H](Cc1c[nH]cn1)NC(=O)CNC(=O)[C@@H](NC(=O)[C@H](C)NC(=O)[C@H](Cc1c[nH]c2ccccc12)NC(=O)[C@H](Cc1c[nH]cn1)NC(=O)[C@H](CC(N)=O)NC(=O)CN)C(C)C)C(N)=O [GRP(18-27), Gly-Asn-His-Trp-Ala-Val-Gly-His-Leu-Met-NH2] |  | not | 60% | crossreacted |
| CSCC[C@H](NC(=O)[C@H](CC(C)C)NC(=O)[C@H](Cc1cnc[nH]1)NC(=O)CNC(=O)[C@@H](NC(=O)[C@H](C)NC(=O)[C@H](Cc1c[nH]c2ccccc12)NC(=O)[C@H](CCC(N)=O)NC(=O)[C@H](CC(N)=O)NC(=O)CNC(=O)[C@H](CC(C)C)NC(=O)[C@H](CCCN=C(N)N)NC(=O)[C@H](CCC(N)=O)NC(=O)[C@@H]1CCC(=O)N1)C(C)C)C(N)=O [Bombesin] |  |  | 30% | crossreacted |
